Experimental findings from US12594279B2, “Composition for preventing or treating TNF-α-related disease, comprising hydroflumethiazide as active ingredient” (SK CHEMICALS CO., LTD., priority 2020, dated 2026) are described below.

For data set [1], the system named is rheumatoid arthritis DBA-1J mouse model. Put plainly: Histopathological quantification of ankle regions (H&E, safranin-O) in rheumatoid arthritis DBA-1J mouse model. The data set is classed as in vivo. Here is the method:
(§1) DBA-1J mice were purchased from Central Lab. Animal Inc. Bovine Type II collagen (2 mg/mL) was emulsified in 4 mg/mL of Complete Freund's adjuvant at 1:1, and then injected subcutaneously to the DBA-1J mice at the base of the tail with 100 μL/head to induce arthritis first. Then, after 3 weeks, Bovine Type II collagen (2 mg/mL) was emulsified in Incomplete Freund's adjuvant at 1:1 and injected subcutaneously to the DBA-1J mice at the base of the tail with 100 μL/head to prepare rheumatoid arthritis animal models.
(§2) As a normal control group, 0.5% methyl cellulose (MC) was orally administered to healthy DBA-1J mice, and as a comparative control group, 0.5% MC was orally administered to the prepared rheumatoid arthritis mouse models, daily for 2 weeks. Methotrexate (MTX, 2 mg/kg/2 day), hydroxychloroquine (HCQ, 80 mg/kg/day), which are commercially available therapeutic agents for rheumatoid arthritis, and hydroflumethiazide (5 mg/kg/day or 20 mg/kg/day) were orally administered daily for 2 weeks to the prepared rheumatoid arthritis mouse models, respectively.
On day 14 of administration, the mice in each of the control groups and experimental groups were sacrificed, and then joint staining photographs were taken through the following process. The ankle areas of the sacrificed mice were subjected to general tissue treatment processes such as demineralization, trimming, dehydration, paraffin embedding, and microtome cutting to prepare specimens for histopathological examination. Then, Hematoxylin & Eosin (H&E) and safranin-O stainings were performed, and histopathological changes were observed using an optical microscope (FIG. 5).
In addition, the degrees of synovium proliferation, bone destruction, and cartilage damage were quantified, and the results are shown in Table 5 below.

For data set [2] the test system is unchanged. Put plainly: Size of lower extremity edema  in rheumatoid arthritis DBA-1J mouse model. The data set is classed as in vivo. Details: Size of lower extremity edema, Right Feet / Size of lower extremity edema, Left Feet: unit not given here. On the procedure:
as §1, §2
Arthritis indices were measured on day 9 and 14 after the administration of each drug in each of the control groups and experimental groups on the basis of the following criteria. Reference: 0, No edema or swelling: 1, Mild edema and redness confined to the joint: 2, Mild edema and redness from the joint to carpal bone and tarsal bone: 3, Moderate edema and redness from the joint to carpal bone and tarsal bone: 4, Overall edema and redness and joint stiffness: 5. In the arthritis index, the highest score was set to 16 points by summing up the four limb scores. […]

Data set [3] shares this test system. Put plainly: Arthritis index in collagen-induced rheumatoid arthritis DBA-1J mouse model. In kind it is in vivo. On the procedure:
as §1, §2
[…] Reference: 0, No edema or swelling: 1, Mild edema and redness confined to the joint: 2, Mild edema and redness from the joint to carpal bone and tarsal bone: 3, Moderate edema and redness from the joint to carpal bone and tarsal bone: 4, Overall edema and redness and joint stiffness: 5. In the arthritis index, the highest score was set to 16 points by summing up the four limb scores. In addition, the size of the lower extremity edema was measured using a micrometer on day 14 after each drug was administered in each of the control groups and experimental groups.

For data set [4], the system named is RAW 264.7. Kind of data set: MTT assay cell viability. In kind it is cell-based. Particulars: for Cytotoxicity (MTT assay): concentrations of Table 1. (In general: Tetrazolium dyes change colour on reduction, which living cells bring about.)
Data set [5] deals with rheumatoid arthritis DBA-1J mouse model. Put plainly: Histopathological quantification of ankle regions (H&E, safranin-O) in rheumatoid arthritis DBA-1J mouse model. Particulars: oral, FIG. 6. In kind it is in vivo.
Data set [6] concerns TNF-α. Put plainly: TNF-α expression level by ELISA in LPS-induced RAW 264.7 cells. Particulars: for TNF-α: LPS 10 ng/ml-induced RAW 264.7, ELISA. The data set is classed as cell-based. On the procedure: In addition, in order to confirm an effect of inhibiting the TNF-α expression of hydroflumethiazide in induced inflammatory cells, an experiment was performed as follows. RAW 264.7 cells were treated with DMSO at a concentration of 0.01% (v/v) as an untreated control group, and the cells were treated with LPS at a concentration of 10 ng/ml as a control group to induce an inflammatory response. […] Then, the expression level of TNF-α was measured and compared through the ELISA method in the groups treated with respective drugs.
In general terms: In an ELISA, binding on a coated surface is turned into a signal by an enzyme label.

[7] abbreviates: Mus musculus, RAW264.7, TNF-α, LPS-induced RAW 264.7, 20 uM.

Molecules are shown by their SMILES. Where a name gives a salt, the structure may show the parent alone.

For `CCN(CCO)CCCC(C)Nc1ccnc2cc(Cl)ccc12` (stereo not drawn) [HCQ, hydroxychloroquine], the Bone destruction in data set [1] (day 14, G4, 80 mg/kg/day oral) amounted to 2.3 ± 0.5. The molecule further had a Cartilage damage in data set [1] (day 14, G4, 80 mg/kg/day oral) of 2 ± 0.6. Also, in data set [1] (day 14, G4, 80 mg/kg/day oral), the Synovium proliferation is 3 ± 0.0. Besides, the “Total (synovium proliferation, cartilage damage, bone destruction)” value (from here on “Total”) in data set [1] (day 14, G4, 80 mg/kg/day oral) is given as 7.3 ± 1.0. For the same molecule, the “Size of lower extremity edema, Left Feet” value in data set [2] (Day 0, G4, 80 mg/kg/day oral) came to 0.12 ± 0.02; in data set [2] (Day 14, G4, 80 mg/kg/day oral), 0.16 ± 0.04. Besides, the “Size of lower extremity edema, Right Feet” value amounted to 0.11 ± 0.02 in data set [2] (Day 0, G4, 80 mg/kg/day oral) and 0.15 ± 0.03 in data set [2] (Day 14, G4, 80 mg/kg/day oral). For the same molecule, the Arthritis index in data set [3] (Day 0, G4, 80 mg/kg/day oral) came out at 2.3 ± 1.4; in data set [3] (Day 2, G4, 80 mg/kg/day oral), 4.7 ± 1.2; in data set [3] (Day 4, G4, 80 mg/kg/day oral), 6 ± 1.3; in data set [3] (Day 7, G4, 80 mg/kg/day oral), 7 ± 1.3; in data set [3] (Day 9, G4, 80 mg/kg/day oral), 7.5 ± 1.2; in data set [3] (Day 11, G4, 80 mg/kg/day oral) it was 7.8 ± 1.2. The same molecule displayed an Arthritis index in data set [3] (Day 14, G4, 80 mg/kg/day oral) of 8.5 ± 1.5.
On to `NS(=O)(=O)c1cc2c(cc1C(F)(F)F)NCNS2(=O)=O` [Hydroflumethiazide, hydroflumethiazide], for which the Bone destruction is 1.8 ± 1.0 in data set [1] (day 14, G5, 5 mg/kg/day oral) and 2.5 ± 0.5 ^ in data set [1] (day 14, G6, 20 mg/kg/day oral). The Cartilage damage in data set [1] (day 14, G5, 5 mg/kg/day oral) is reported as 2 ± 0.9; in data set [1] (day 14, G6, 20 mg/kg/day oral), 1.7 ± 0.8. In addition, the Synovium proliferation in data set [1] (day 14, G5, 5 mg/kg/day oral) amounted to 3 ± 0.0; in data set [1] (day 14, G6, 20 mg/kg/day oral), 2.2 ± 1.2. Further, the “Total” value is listed as 6.8 ± 1.8 in data set [1] (day 14, G5, 5 mg/kg/day oral) and 6.3 ± 1.5 in data set [1] (day 14, G6, 20 mg/kg/day oral). Further, in data set [2] (20 mg/kg/day, day 14), the “Size of the lower extremity edema compared to the MTX-administered group” value is given as “decreased at a similar level to the MTX-administered group”. The “Size of lower extremity edema, Left Feet” value in data set [2] (Day 0, G5, 5 mg/kg/day oral) worked out at 0.09 ± 0.01; in data set [2] (Day 0, G6, 20 mg/kg/day oral), 0.11 ± 0.03; in data set [2] (Day 14, G5, 5 mg/kg/day oral), 0.14 ± 0.02; in data set [2] (Day 14, G6, 20 mg/kg/day oral) it was 0.15 ± 0.03. Besides, the “Size of lower extremity edema, Right Feet” value in data set [2] (Day 0, G5, 5 mg/kg/day oral) turned out to be 0.11 ± 0.03; in data set [2] (Day 0, G6, 20 mg/kg/day oral), 0.1 ± 0.01; in data set [2] (Day 14, G5, 5 mg/kg/day oral), 0.15 ± 0.04; in data set [2] (Day 14, G6, 20 mg/kg/day oral), 0.15 ± 0.03. For the same molecule, the “Cytotoxicity (MTT assay)” value in data set [4] is on record as “cytotoxicity was not exhibited”. The Viability in data set [4] (treatment concentration 0.1 uM) is 106.35%; in data set [4] (treatment concentration 1 uM), 101.82%; in data set [4] (treatment concentration 10 uM) it was 105.73%; in data set [4] (treatment concentration 20 uM) it was 101.11%. Also, in data set [5], the “Anti-arthritic effect compared to HCQ” value is listed as “superior to HCQ”. In addition, the TNF-α in data set [6] (0.1 uM) is 1466.48 pg/mL; in data set [6] (1 uM) it was 1289.62 pg/mL; in data set [6] (10 uM), 837.44 pg/mL; in data set [6] (20 uM), 625.65 pg/mL. This molecule yielded an inhibition at 0.1 µM in data set [6] (Mus musculus, RAW264.7, TNF-α, LPS-induced RAW 264.7, 0.1 uM) of 20.8%. The molecule further came in with an inhibition at 1 µM in data set [6] (Mus musculus, RAW264.7, TNF-α, LPS-induced RAW 264.7, 1 uM) of 30.4%. The molecule further registered an inhibition at 10 µM in data set [6] (Mus musculus, RAW264.7, TNF-α, LPS-induced RAW 264.7, 10 uM) of 54.8%. For the same molecule, the inhibition at 20 µM in data set [6] (setting [7]) is 66.2%. For the same molecule, in data set [6] (inflammatory response-induced RAW 264.7, at least 0.1 μM), the “Decrease of expression level of TNF-α” value is “at least 20%”. The “Expression level of TNF-α compared to the group treated with PS1145” value in data set [6] (inflammatory response-induced RAW 264.7, at least 1 μM) is listed as “further decreased compared to the group treated with PS1145”. The “Decrease of expression of TNF-α” value in data set [6] (inflammatory response-induced RAW 264.7, at least 10 μM) is reported as “at least 50%”. Also, the “Arthritis index compared to the MTX-administered group” value in data set [3] (20 mg/kg/day, day 14) was “decreased at a similar level to the MTX-administered group”. In addition, the Arthritis index was 2.3 ± 1 in data set [3] (Day 0, G5, 5 mg/kg/day oral); 2.3 ± 1 in data set [3] (Day 0, G6, 20 mg/kg/day oral); 4.2 ± 1.6 in data set [3] (Day 2, G5, 5 mg/kg/day oral); 4 ± 1.7 in data set [3] (Day 2, G6, 20 mg/kg/day oral); 5.8 ± 1.8 in data set [3] (Day 4, G5, 5 mg/kg/day oral); 5 ± 1.4 in data set [3] (Day 4, G6, 20 mg/kg/day oral). Moreover, the Arthritis index in data set [3] (Day 7, G5, 5 mg/kg/day oral) is recorded as 6 ± 2.1; in data set [3] (Day 7, G6, 20 mg/kg/day oral), 5.7 ± 1.5; in data set [3] (Day 9, G5, 5 mg/kg/day oral), 6.7 ± 2.0; in data set [3] (Day 9, G6, 20 mg/kg/day oral) it was 6.2 ± 1.7; in data set [3] (Day 11, G5, 5 mg/kg/day oral) it was 7.2 ± 1.7; in data set [3] (Day 11, G6, 20 mg/kg/day oral) it was 6.8 ± 1.6. For the same molecule, the Arthritis index is 8 ± 2.5 in data set [3] (Day 14, G5, 5 mg/kg/day oral) and 7.3 ± 2.3 in data set [3] (Day 14, G6, 20 mg/kg/day oral). Besides, in data set [3] (from day 9 of the administration), the “Arthritis index compared to the HCQ-administered group” value is listed as “significantly decreased”.
`CN(Cc1cnc2nc(N)nc(N)c2n1)c1ccc(C(=O)N[C@@H](CCC(=O)O)C(=O)O)cc1` [MTX, Methotrexate] gave a Bone destruction in data set [1] (day 14, G3, 2 mg/kg/2 day oral) of 1.5 ± 0.8. The molecule further showed a Cartilage damage in data set [1] (day 14, G3, 2 mg/kg/2 day oral) of 1.3 ± 0.5. In data set [1] (day 14, G3, 2 mg/kg/2 day oral), the Synovium proliferation was 2.5 ± 0.5. Also, the “Total” value in data set [1] (day 14, G3, 2 mg/kg/2 day oral) came to 5.3 ± 1.5. For the same molecule, the “Size of lower extremity edema, Left Feet” value in data set [2] (Day 0, G3, 2 mg/kg/2 day oral) came to 0.11 ± 0.02; in data set [2] (Day 14, G3, 2 mg/kg/2 day oral), 0.12 ± 0.02. Also, the “Size of lower extremity edema, Right Feet” value in data set [2] (Day 0, G3, 2 mg/kg/2 day oral) was 0.1 ± 0.02; in data set [2] (Day 14, G3, 2 mg/kg/2 day oral), 0.15 ± 0.03. Besides, the Arthritis index is 2.3 ± 1.6 in data set [3] (Day 0, G3, 2 mg/kg/2 day oral); 4.2 ± 1.0 in data set [3] (Day 2, G3, 2 mg/kg/2 day oral); 5 ± 1.3 in data set [3] (Day 4, G3, 2 mg/kg/2 day oral); 5.8 ± 1.3 in data set [3] (Day 7, G3, 2 mg/kg/2 day oral); 6.3 ± 1.4 in data set [3] (Day 9, G3, 2 mg/kg/2 day oral); 6.7 ± 1.5 in data set [3] (Day 11, G3, 2 mg/kg/2 day oral). Moreover, in data set [3] (Day 14, G3, 2 mg/kg/2 day oral), the Arthritis index was found to be 7 ± 1.3.
`O=C(Nc1cc(Cl)cc2c1[nH]c1cnccc12)c1cccnc1` [PS1145, N-(6-chloro-9H-pyrido[3,4-b]indol-8-yl)-3-pyridinecarboxamide dihydrochloride]: the “Cytotoxicity (MTT assay)” value in data set [4] is reported as “cytotoxicity was not exhibited”. The same molecule displayed a Viability in data set [4] (treatment concentration 20 uM) of 99.16%. The molecule further yielded a TNF-α in data set [6] (20 uM) of 1402.08 pg/mL. In data set [6] (setting [7]), this molecule came in with an inhibition at 20 µM of 24.3%.

As usually defined, the inhibition is the change of the read-out against control, counted positive when it falls.
